Results reported in publication PMC5253077 (Acta biomaterialia, 2016).
≈ marks a conversion by molar mass, not a printed value. Square brackets hold non-standard residues; d marks the D form. Peptide text beside a SMILES is read from it.

Legend:
HeLa CCL-2 cells = type: cell-based, human
E. coli ATCC 35218 = conditions: cited from earlier work
[1] = system: E. coli ATCC 25922 and ML-35p strains; conditions: cited from earlier work
B. megaterium = conditions: cited from earlier work
S. aureus ATCC 25923 = conditions: cited from earlier work
C. tropicalis ATCC 13803 = type: cell-based, Candida tropicalis; conditions: ATCC 13803, 48 h
C. glabrata ATCC 2001 = type: cell-based, Candida glabrata; conditions: ATCC 2001, 48 h
Human HeLa (HeLa CCL-2) = experiment: MTS cytotoxicity assay; type: cell-based
B. subtilis 168 = type: cell-based, Bacillus subtilis; conditions: 168, 20 h
[2] = system: Candida albicans ATCC 10231; type: cell-based; conditions: ATCC 10231, 48 h
Porcine RBCs = experiment: Hemolytic assay; type: cell-based, pig; conditions: 2% blood cells in PBS, 37°C, one hour, hemoglobin at 545 nm
S. epidermidis 1457 = type: cell-based, Staphylococcus epidermidis; conditions: 1457, 20 h
S. aureus USA300 [3] = type: cell-based, Staphylococcus aureus; conditions: USA300, 20 h
Human HaCaT = experiment: MTS cytotoxicity assay; type: cell-based; conditions: skin keratinocytes
E. coli K12 = type: cell-based, Escherichia coli; conditions: K12, 20 h
Human HEK293 = experiment: MTS cytotoxicity assay; type: cell-based; conditions: kidney cells
S. aureus USA300 [4] = type: cell-based, Staphylococcus aureus
Chicken RBCs = experiment: Hemolytic assay; type: cell-based; conditions: 2% blood cells in PBS, 37°C, one hour, hemoglobin at 545 nm

| SMILES | MIC Candida tropicalis (C. tropicalis ATCC 13803) | MIC Candida glabrata (C. glabrata ATCC 2001) | MIC B. subtilis 168 (B. subtilis 168) | MIC Candida albicans [2] | MIC S. epidermidis 1457 (S. epidermidis 1457) | MIC S. aureus USA300 (S. aureus USA300 [3]) | MIC against S. aureus USA300, 150 mM NaCl (S. aureus USA300 [3]) | MIC against S. aureus USA300, pH 6.8 (S. aureus USA300 [3]) | MIC against S. aureus USA300, Normal medium (pH 7.4) (S. aureus USA300 [3]) | MIC against S. aureus USA300, pH 8 (S. aureus USA300 [3]) | MIC E. coli K12 (E. coli K12) | MBC S. aureus USA300 (S. aureus USA300 [4]) | other results |
| --- | --- | --- | --- | --- | --- | --- | --- | --- | --- | --- | --- | --- | --- |
| CC[C@H](C)[C@H](NC(=O)[C@H](CCCNC(=N)N)NC(=O)[C@H](CCCNC(=N)N)NC(=O)[C@H](CC(C)C)NC(=O)[C@H](Cc1c[nH]c2ccccc12)NC(=O)[C@H](Cc1c[nH]c2ccccc12)NC(=O)[C@H](Cc1c[nH]c2ccccc12)NC(=O)[C@@H](N)CS)C(=O)N[C@@H](Cc1c[nH]c2ccccc12)C(=O)O [CysTetraF2W-RR] (H-CWWWLRRIW-OH) | – | – | – | – | – | – | – | – | – | – | – | – | cytotoxicity of free peptide to HeLa CCL-2 cells (HeLa CCL-2 cells): nontoxic |
| CC[C@H](C)[C@H](NC(=O)[C@H](CCCNC(=N)N)NC(=O)[C@H](CO)NC(=O)[C@H](CC(C)C)NC(=O)[C@H](Cc1ccccc1)NC(=O)[C@H](Cc1ccccc1)NC(=O)[C@@H](N)Cc1ccccc1)C(=O)N[C@@H](Cc1ccccc1)C(N)=O [Temporin-SHf] (H-FFFLSRIF-NH2; N-terminus and C-terminus assumed) | – | – | – | – | – | – | – | – | – | – | – | – | MIC E. coli ATCC 35218 (E. coli ATCC 35218): > 200 µM; MIC E. coli ATCC 25922 and ML-35p strains [1]: 25 to 30 µM; MIC B. megaterium (B. megaterium): 3 µM (≈ 3.23 µg/mL); MIC S. aureus ATCC 25923 (S. aureus ATCC 25923): 12.5 µM (≈ 13.4 µg/mL) |
| CC[C@H](C)[C@H](NC(=O)[C@H](CCCCN)NC(=O)[C@H](CCCCN)NC(=O)[C@H](CC(C)C)NC(=O)[C@H](Cc1c[nH]c2ccccc12)NC(=O)[C@H](Cc1c[nH]c2ccccc12)NC(=O)[C@@H](N)Cc1c[nH]c2ccccc12)C(=O)N[C@@H](Cc1c[nH]c2ccccc12)C(=O)O [TetraF2W-KK] (H-WWWLKKIW-OH) | 1.6 µM (≈ 1.99 µg/mL) | 6.2 to 12.5 µM | 6.2 µM (≈ 7.72 µg/mL) | 6.2 µM (≈ 7.72 µg/mL) | 6.2 µM (≈ 7.72 µg/mL) | 3.1 to 6.2 µM | 3.1 to 6.2 µM | 12.5 μM | 3.1–6.2 μM | 3.1 μM | 12.5 to 25 µM | >25 µM | LC50 Human HeLa (Human HeLa (HeLa CCL-2)): 70 µM; LC50 (50% hemolytic concentration) Porcine RBCs (Porcine RBCs): 55 µM; LC50 Human HaCaT (Human HaCaT): 50 µM; LC50 Human HEK293 (Human HEK293): 50 µM; LC50 (50% hemolytic concentration) Chicken RBCs (Chicken RBCs): 50 µM |
| CC[C@H](C)[C@H](NC(=O)[C@H](CCCNC(=N)N)NC(=O)[C@H](CCCCN)NC(=O)[C@H](CC(C)C)NC(=O)[C@H](Cc1c[nH]c2ccccc12)NC(=O)[C@H](Cc1c[nH]c2ccccc12)NC(=O)[C@@H](N)Cc1c[nH]c2ccccc12)C(=O)N[C@@H](Cc1c[nH]c2ccccc12)C(=O)O [TetraF2W-KR] (H-WWWLKRIW-OH) | 3.1 to 6.2 µM | 12.5 µM (≈ 15.9 µg/mL) | 6.2 µM (≈ 7.9 µg/mL) | 12.5 µM (≈ 15.9 µg/mL) | 12.5 µM (≈ 15.9 µg/mL) | 3.1 µM (≈ 3.95 µg/mL) | 3.1 µM (≈ 3.95 µg/mL) | 6.2 μM | 3.1 μM | 3.1 μM | 12.5 to 25 µM | 12.5 µM (≈ 15.9 µg/mL) | LC50 Human HeLa (Human HeLa (HeLa CCL-2)): 100 µM; LC50 (50% hemolytic concentration) Porcine RBCs (Porcine RBCs): 50 µM; LC50 Human HaCaT (Human HaCaT): 60 µM; LC50 Human HEK293 (Human HEK293): 55 µM; LC50 (50% hemolytic concentration) Chicken RBCs (Chicken RBCs): 35 µM |
| CC[C@@H](C)[C@@H](NC(=O)[C@@H](CCCCN)NC(=O)[C@@H](CCCNC(=N)N)NC(=O)[C@@H](CC(C)C)NC(=O)[C@@H](Cc1c[nH]c2ccccc12)NC(=O)[C@@H](Cc1c[nH]c2ccccc12)NC(=O)[C@H](N)Cc1c[nH]c2ccccc12)C(=O)N[C@H](Cc1c[nH]c2ccccc12)C(=O)O [TetraF2W-RK-d] (H-[dW][dW][dW][dL][dR][dK][dI][dW]-OH) | – | – | 3.1 µM (≈ 3.95 µg/mL) | – | 6.2 µM (≈ 7.9 µg/mL) | 3.1 µM (≈ 3.95 µg/mL) | – | – | – | – | 6.2 µM (≈ 7.9 µg/mL) | 12.5 µM (≈ 15.9 µg/mL) | – |
| CC[C@H](C)[C@H](NC(=O)[C@H](CCCCN)NC(=O)[C@H](CCCNC(=N)N)NC(=O)[C@H](CC(C)C)NC(=O)[C@H](Cc1c[nH]c2ccccc12)NC(=O)[C@H](Cc1c[nH]c2ccccc12)NC(=O)[C@@H](N)Cc1c[nH]c2ccccc12)C(=O)N[C@@H](Cc1c[nH]c2ccccc12)C(=O)O [TetraF2W-RK] (H-WWWLRKIW-OH) | 3.1 to 6.2 µM | 12.5 µM (≈ 15.9 µg/mL) | 6.2 µM (≈ 7.9 µg/mL) | 12.5 µM (≈ 15.9 µg/mL) | 6.2 µM (≈ 7.9 µg/mL) | 3.1 µM (≈ 3.95 µg/mL) | 3.1 µM (≈ 3.95 µg/mL) | 6.2 μM | 3.1 μM | 3.1 μM | 25 µM (≈ 31.8 µg/mL) | 12.5 µM (≈ 15.9 µg/mL) | – |
| CC[C@H](C)[C@H](NC(=O)[C@H](CCCNC(=N)N)NC(=O)[C@H](CO)NC(=O)[C@H](CC(C)C)NC(=O)[C@H](Cc1c[nH]c2ccccc12)NC(=O)[C@H](Cc1c[nH]c2ccccc12)NC(=O)[C@@H](N)Cc1c[nH]c2ccccc12)C(=O)N[C@@H](Cc1c[nH]c2ccccc12)C(=O)O [TetraF2W] (H-WWWLSRIW-OH) | – | – | 6.2 µM (≈ 7.64 µg/mL) | – | >50 µM | 3.1 to 6.2 µM | – | – | – | – | >100 µM | 6.2 µM (≈ 7.64 µg/mL) | – |
